Assays:
Assay type in all cases: cell-based
[1] = system: human lung fibroblasts MRC-5; assay: fluorometric cell viability assay (Resazurin), MRC-5; conditions: MRC-5 cells, treated for 2 days
Experimental: (§1) Cell Culture: Human cervical carcinoma cells (HeLa) were cultured in DMEM (Gibco) supplemented with 5% fetal calf serum (FCS, Gibco), 100 U/ml penicillin, 100 μg/ml streptomycin at 37° C. and 5% CO2. The normal human fetal lung fibroblast MRC-5 cell line was maintained in F-10 medium (Gibco) supplemented with 10% FCS (Gibco), 200 mmol/l L-Glutamine, 100 U/ml penicillin, and 100 μg/ml streptomycin at 37° C. and 5% CO2. To establish the anticancer potential of the compounds they were tested in one cell line, namely HeLa by a fluorometric cell viability assay using Resazurin (Promocell GmbH). Compounds showing cytotoxicity were then tested on normal MRC-5 cells. 1 day before treatment, cells were plated in triplicates in 96-well plates at a density of 4×10^3 cells/well in 100μl for HeLa and 7×10^3 cells/well for MRC-5 cells. Cells were treated with increasing concentrations of the compounds for 2 days. After 2 days, medium and drug were removed and […] fresh medium containing Resazurin (0.2 mg/ml final concentration) were added. After 4h of incubation at 37° C., the highly red fluorescent dye resorufin's fluorescence was quantified at 590 nm emission with 540 nm excitation wavelength in the SpectraMax M5 microplate Reader. […]

[2] = system: human cervical cancer HeLa; assay: fluorometric cell viability assay (Resazurin), HeLa; conditions: HeLa cells, treated for 2 days
Experimental: as §1

H. contortus = assay: larval development assay (number of L3)
Experimental: In vitro experiments can be conducted by testing compounds in a larval development assay. To do this, sheep are infected with infective third-stage larvae (L3) of species of Haemonchus, Trichstrongylus, Teledorsagia, Cooperia, Oesophagostomum or Chabertia. Faeces from these sheep are collected and used for experiments; ˜100 g of faeces are crushed homogenized and suspended in ˜1000 ml of sugar solution (specific gravity 1.2), put through a ‘tea strainer’ sieve, and the large undigested food material in the sieve discarded. The sugar solution is then placed into a flat dish and strips of plastic overhead transparency film placed on the surface. The plastic is left for at least 45 minutes to allow the eggs to stick and then removed carefully. The eggs are collected by washing them from the plastic film, with water, into a 50 ml centrifuge tube. The water containing egg suspension eggs is put through a […] to remove further plant material and then centrifuged at 1,000×g for 10 minutes. The supernatant is checked for eggs and then discarded as the majority of eggs are at the bottom of the tube. These eggs are collected in 1 ml of water and diluted to ˜200 eggs/20 ml. • 1. […] Following 7 days additional incubation, the numbers of L3 larvae that had developed in each well is determined.

C. elegans = C. elegans movement inhibition assay; conditions: for mobility of the C. elegans worms: 50 μM, result in words
Experimental: C. elegans movement inhibition assay: Asynchronous N2 C. elegans worms (Bristol) were maintained on nematode growth medium (NGM) agar, seeded with a lawn on OP50 E. coli as a food-source, according to standard protocol (Maintenance of C. elegans; Stiernagle, T., Ed.; WormBook, 2006.). Worms were harvested from NGM plates by washing with M9 buffer (42 mmol/l Na2HPO4, 86 mmol/l NaCl and 1 mmol/l MgSO4), aspiration and collection in a 10 mL tube (Falcon). The average number of worms in 5 μL of this suspension was calculated by transferring 4×5 μL aliquots to a glass slide (Menzel Glaser), and worms were enumerated under a compound microscope (Olympus CH30). To adjust the suspension to contain 1 worm per μL, M9 buffer was either added or removed after pelleting worms at 600×g for 30 sec.
Dilution of test compounds, Zolvix (monepantel) and DMSO for working stock solutions and 96 well plate set-up for liquid screen: A volume of […] buffer was added to each well in a 96-well plate, using a multichannel pipettor. A volume of 20μL of worm suspension was added to each well using a single-channel pipettor, with a trimmed pipette tip (increased aperture to minimize damage to worms). The worm suspension was resuspended by flicking after every three wells to maintain consistency. The compounds were stored at 4° C., and diluted in dimethyl sulfoxide (DMSO) to achieve a 100 mmol/l concentration 1 hr prior to addition to assay. These stock solutions were diluted further in DMSO to create a series of 20 mmol/l, […] and 0.002 mmol/l which were subsequently diluted 1:20 in M9 buffer to create 1 mmol/l, 0.1 mmol/l, 1 μmol/l and 0.1 μmol/l (all 5% (v/v) DMSO). […] A Zolvix (monepantel) dilution series was simultaneously created following the same dilution schema, and used as a positive control; 10 μL of 10% DMSO was added to achieve 1% DMSO vehicle control. 10 μL M9 was added to negative control wells (see FIG. 1). Plates were incubated at […]
Quantitative worm mobility scoring: Immobile worms were counted as a percentage of total worms in each well using an Olympus SZ30 dissecting microscope. The immobile fraction was subtracted from the total, and this remainder was divided by the total to give a percentage of live worms per well. Descriptive and inferential statistics were deferred until further replicates are performed.

| Substance | IC50 [1] [µM] | IC50 [2] [µM] | Number of L3 H. contortus/100 μM (H. contortus) | Mobility in C. elegans at 50 μM (C. elegans) [%] | mobility of the C. elegans worms (C. elegans) |
| --- | --- | --- | --- | --- | --- |
| 2-Cyano-2-(ruthenocenecarboxamido)propyl ruthenocnecarboxylate [Compound 2a] | > 100 | > 100 | – | – | – |
| 2-Ferroceneamido-2-cyanopropyl ferrocenate [Compound 2] | 24.6 | > 100 | >100 | 22 | reduced |
| N-(1-(ferrocenyloxy)-2-cyanopropan-2-yl)ferroceneamide [Compound 1] | – | – | 94.7 | 25 | reduced |

From US9598451B2, “Bis-organometallic 2-amino-3-hydroxy-2-methylpropanenitrile derivatives for use as anthelmintics” (UNIVERSITÄT ZÜRICH, priority 2013, dated 2017)
